Test results taken from patent US20260183277A1, “ANTIVIRAL PHARMACEUTICAL COMPOSITION COMPRISING ERRy INHIBITOR AS ACTIVE INGREDIENT” (priority 2024, published 2026).
Like-named read-outs stand apart in the source and are kept apart here.

Assays:
[1] = test system: human SREBP1c gene promoter; format: cell-based; settings: cells infected with each individual virus; 20 μM
[2] = Lung distribution after administration to animals; settings: in vivo experiments
Text: […]. […] […]

[3] = test system: SARS-CoV-2-infected Vero E6 cells; assay: Eicosanoid and cytokine ELISA in SARS-CoV-2-infected Vero E6 cells; format: cell-based, monkey
IAV HA protein = format: cell-based, influenza A virus
PEDV QIAP1401 strain = format: cell-based, porcine epidemic diarrhea coronavirus; settings: maximum dose of 20 μM
IAV-infected A549 cells = format: cell-based, human
BCoV KWD strain = format: cell-based, bovine coronavirus; settings: maximum dose of 20 μM
[4] = test system: influenza A virus (IAV) PR8 strain; format: cell-based
SARS-CoV-2 S protein = format: cell-based
[5] = test system: SARS-CoV-2-infected cells; assay: Double-membrane vesicle / dsRNA formation by TEM and confocal microscopy; format: cell-based
free fatty acids (FFA) = format: cell-based
[6] = test system: SREBP1c, SREBP1a, FASN, DGAT1, SCD1; format: cell-based
[7] = test system: intracellular triacylglycerol (TAG); format: cell-based; settings: virus-infected cells; 20 μM
SARS-CoV-2 KCDC03 strain = assay: SARS-CoV-2 KCDC03 challenge of Syrian hamsters; format: in vivo; settings: for reduction of gross lung lesions, individual therapy: strain not stated
[8] = mice
[9] = test system: intracellular fatty acid oxidation (FAO); format: cell-based
PSaV Cowden strain = assay: microbe, parasite or virus in culture; format: cell-based, porcine sapovirus; settings: Sapporo virus, MOI=0.1 FFU, viral yield in cell supernatant, read-out: half-maximal inhibitory concentration (IC50)
ERRγ = target: T1, ERRγ (Homo sapiens, UniProt P62508); settings: compared with lead compound GSK5182; cited from earlier work
T1 sequence (P62508 1-458): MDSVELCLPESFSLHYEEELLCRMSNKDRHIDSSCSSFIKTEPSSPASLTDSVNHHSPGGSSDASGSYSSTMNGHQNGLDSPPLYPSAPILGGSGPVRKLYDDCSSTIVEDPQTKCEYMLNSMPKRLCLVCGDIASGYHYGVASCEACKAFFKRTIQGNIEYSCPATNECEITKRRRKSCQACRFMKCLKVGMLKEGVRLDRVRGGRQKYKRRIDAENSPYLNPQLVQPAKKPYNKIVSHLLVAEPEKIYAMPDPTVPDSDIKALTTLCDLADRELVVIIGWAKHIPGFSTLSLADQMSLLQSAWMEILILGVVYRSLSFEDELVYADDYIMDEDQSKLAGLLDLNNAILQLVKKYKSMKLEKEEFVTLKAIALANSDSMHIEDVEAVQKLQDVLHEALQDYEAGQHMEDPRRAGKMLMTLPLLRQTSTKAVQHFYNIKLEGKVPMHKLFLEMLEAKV

ERRγ promoter = format: cell-based
[10] = test system: c-Jun occupancy on the AP1 regulatory element site of the ERRγ promoter; format: cell-based
ROS = format: cell-based

CC(C)N1CCN(c2ccc(/C(=C(/CCCO)c3ccccc3)c3ccc(O)cc3)cc2)CC1 [DN200434]
activity of the SREBP1c gene promoter [1]: markedly suppressed
signs of toxicity (Syrian hamsters, i.p. 40 mg kg^−1 d^−1, 14 days): did not induce any signs of toxicity
gross or histopathological changes in vital organs (liver, lung, kidney, heart, spleen) (hamsters): did not result in gross or histopathological changes
detection in the lungs via the bloodstream [2]: detected in sufficient quantities in the lungs
IFN-α and IFN-β levels ([3]; SARS-CoV-2-infected Vero cells): remained unchanged
TNF-α, IL-6, and MCP-1 levels ([3]; SARS-CoV-2-infected Vero cells): significantly reduced
levels of PGE2 and LTB4 ([3]; SARS-CoV-2-infected cells): significantly reduced
palmitoylation of IAV HA proteins (IAV HA protein): significantly inhibited
reduction in viral genome copy numbers (PEDV QIAP1401 strain): more than 2.0 log 10 steps
reduction in viral titers (PEDV QIAP1401 strain): more than 2.0 log 10 steps
levels of PGE2 and LTB4 (IAV-infected A549 cells): significantly reduced
proinflammatory cytokines IFN-α, IFN-β, TNF-α, IL-6, and MCP-1 (IAV-infected A549 cells): significant suppression
reduction in viral genome copy numbers (BCoV KWD strain): more than 2.0 log 10 steps
reduction in viral titers (BCoV KWD strain): more than 2.0 log 10 steps
viral genome replication, progeny production, and protein synthesis of IAV [4]: dose-dependent suppression
palmitoylation of SARS-CoV-2 S protein (SARS-CoV-2 S protein): significantly inhibited
SARS-CoV-2-induced perinuclear DMV clusters containing viral double-stranded RNA ([5]; TEM and confocal microscopy): significant reduction
number of progeny viral particles ([5]; TEM, vs vehicle-treated virus-infected cells): notable reduction
synthesis of representative fatty acids induced by infection (free fatty acids (FFA)): significantly interrupted
level of selected FFA (free fatty acids (FFA); 20 μM): either restored the level of selected FFA to that of mock control cells or decreased it below mock control levels
SREBP1c expression activated by individual virus infections [6]: reduced
basal level of SREBP1a mRNA ([6]; 20 μM): not affected
lipogenic gene activation (FASN, DGAT1, SCD1 mRNA) ([6]; 20 μM): effectively attenuated
lipid accumulation (intracellular TAG) [7]: effectively attenuated
reduction in gross lung lesions (SARS-CoV-2 KCDC03 strain; 40 mg kg^−1 d^−1 i.p., twice a day for four and a half days, vs virus-challenged, vehicle-treated control): 92%
reduction of gross lung lesions, individual therapy (SARS-CoV-2 KCDC03 strain; DN200434 40 mg kg^−1 d^−1 alone (combination study)): 50%
IFN-α and IFN-β levels in BALF (SARS-CoV-2 KCDC03 strain; hamsters, i.p., vs vehicle-treated controls): no effect
gross or histopathological changes in vital organs (liver, lung, kidney, heart, spleen) [8]: did not result in gross or histopathological changes
signs of toxicity ([8]; i.p. 20 mg kg^−1 d^−1, 14 days): did not induce any signs of toxicity
energy production through 3-oxidation in the mitochondria from the FFA substrate [9]: inhibited
IC50 (PSaV Cowden strain): 6.24 ± 1.07 µM
functional IC50 relative to GSK5182 (ERRγ): 12 fold

CC(=O)N[C@@H](CS)C(=O)O [NAC, N-acetylcysteine]
virus-induced activation of ERRγ promoter and ERRγ expression (ERRγ promoter): attenuated
virus-increased occupancy of c-Jun on the AP1 regulatory element site of the ERRγ promoter [10]: markedly blocked
virus-induced ROS generation (ROS): significantly suppressed

CCC(CC)COC(=O)[C@H](C)N[P@](=O)(OC[C@H]1O[C@@](C#N)(c2ccc3c(N)ncnn23)[C@H](O)[C@@H]1O)Oc1ccccc1 [remdesivir, reference compound]
reduction of gross lung lesions, individual therapy (SARS-CoV-2 KCDC03 strain; remdesivir 2.5 mg kg^−1 d^−1 alone): 20%
